Assays:
Assay in all cases: relative viability (nuclei count vs DMSO), 5 days (fraction); higher = more cells survive
[1] = compound: COC1=CC=C(C=C1)CN2C=CC3=C2C=C(C=C3)C(=O)NO + COc1cc2c(Oc3ccc(NC(=O)C4(C(=O)Nc5ccc(F)cc5)CC4)cc3F)ccnc2cc1OCCCN1CCOCC1 [Foretinib] (partner 0.25 µM)
In short: (§1)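 Lung cancer cell lines were seeded in 1536-well plates and dosed by pin tool the next day, with either a single drug or a fixed anchor-drug dose combined with five library-drug doses (not always all listed) spaced in √10 steps. Five days later, one step fixed the cells and stained their nuclei (final 0.05% Triton X-100, 1% formaldehyde, 1 ug/ml Hoechst), and nuclei were counted on 4× images. Relative viability is the nuclei count in treated wells divided by the count in vehicle wells, and each value is the median of duplicate plates.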

[2] = compound: COC1=CC=C(C=C1)CN2C=CC3=C2C=C(C=C3)C(=O)NO + Nc1nc2[nH]cc(CCc3ccc(C(=O)N[C@@H](CCC(=O)O)C(=O)O)cc3)c2c(=O)[nH]1 [Pemetrexed] (partner 0.2 µM)
In short: as §1

Veliparib + Crizotinib = compound: C[C@]1(c2nc3c(C(N)=O)cccc3[nH]2)CCCN1 [Veliparib] + C[C@@H](Oc1cc(-c2cnn(C3CCNCC3)c2)cnc1N)c1c(Cl)ccc(F)c1Cl [Crizotinib] (partner 1 µM)
In short: as §1

Veliparib + Vorinostat = compound: C[C@]1(c2nc3c(C(N)=O)cccc3[nH]2)CCCN1 [Veliparib] + O=C(CCCCCCC(=O)Nc1ccccc1)NO [Vorinostat] (partner 1 µM)
In short: as §1

For SW 1573, the relative viability ([1]; first compound 0.253 µM) was 0.877, the relative viability ([1]; first compound 0.8 µM) was 0.865 and the relative viability ([1]; first compound 2.53 µM) was 0.751. For the same cell line, the relative viability ([1]; first compound 8 µM) was 0.694, the relative viability ([2]; first compound 0.253 µM) was 0.906 and the relative viability ([2]; first compound 0.8 µM) was 0.82. The relative viability ([2]; first compound 2.53 µM) was 0.853, the relative viability ([2]; first compound 8 µM) was 0.803 and the relative viability (Veliparib + Crizotinib; first compound 0.02 µM) was 0.986. It also gave a relative viability (Veliparib + Crizotinib; first compound 0.06325 µM) of 0.629, a relative viability (Veliparib + Crizotinib; first compound 0.2 µM) of 0.781 and a relative viability (Veliparib + Crizotinib; first compound 0.6325 µM) of 0.85. The relative viability (Veliparib + Crizotinib; first compound 2 µM) was 0.79, the relative viability (Veliparib + Vorinostat; first compound 0.06325 µM) was 0.596 and the relative viability (Veliparib + Vorinostat; first compound 0.2 µM) was 0.67. The relative viability (Veliparib + Vorinostat; first compound 0.6325 µM) was 0.495 and the relative viability (Veliparib + Vorinostat; first compound 2 µM) was 0.869.

— the supplement of paper PMC10307832
